Format in all cases: biochemical
For experiment [1], the system named is Cryptosporidium andersoni BioA. In words: BioA enzyme activity with DMSO or herbicide in vitro. The note with it: 0.5 μM, spermidine in substrate mix.
The target of experiment [2] is T1, Arabidopsis thaliana BIO3-BIO1 (BioDA) mutants (Arabidopsis thaliana, UniProt B0F481, Q506A).
T1 construct: with the predicted N-terminal mitochondrial transit peptide removed; 6xHis-tag (N); thrombin cleavage site (N); made in house; host or cells: E. coli BL21 (DE3) bioA
T1 sequence (B0F481 23-833 Q506A): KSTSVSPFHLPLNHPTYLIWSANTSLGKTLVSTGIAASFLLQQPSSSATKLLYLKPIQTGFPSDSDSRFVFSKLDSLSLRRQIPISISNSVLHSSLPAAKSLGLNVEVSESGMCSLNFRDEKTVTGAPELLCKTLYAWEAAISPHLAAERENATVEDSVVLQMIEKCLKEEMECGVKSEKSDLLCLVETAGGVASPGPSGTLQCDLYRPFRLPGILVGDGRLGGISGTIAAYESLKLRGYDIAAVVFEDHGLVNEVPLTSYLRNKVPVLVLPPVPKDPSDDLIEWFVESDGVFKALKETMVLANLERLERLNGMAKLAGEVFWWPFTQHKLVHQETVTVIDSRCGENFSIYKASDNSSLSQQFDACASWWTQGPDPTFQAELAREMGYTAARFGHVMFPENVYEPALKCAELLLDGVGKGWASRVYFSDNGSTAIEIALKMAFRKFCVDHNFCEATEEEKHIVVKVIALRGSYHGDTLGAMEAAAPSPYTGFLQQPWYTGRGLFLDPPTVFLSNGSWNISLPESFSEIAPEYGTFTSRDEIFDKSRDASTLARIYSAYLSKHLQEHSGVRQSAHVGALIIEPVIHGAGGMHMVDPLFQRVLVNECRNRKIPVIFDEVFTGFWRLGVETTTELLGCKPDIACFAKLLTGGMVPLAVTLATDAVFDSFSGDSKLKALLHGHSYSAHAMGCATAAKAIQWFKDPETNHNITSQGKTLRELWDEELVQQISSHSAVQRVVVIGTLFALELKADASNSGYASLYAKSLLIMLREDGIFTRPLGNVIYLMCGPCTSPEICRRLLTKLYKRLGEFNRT
Briefly: BIO3-BIO1 mutant enzyme activity in the presence of herbicide, percentage inhibition (fluorometric DAPA assay). The note with it: read-out: percentage inhibition. The method in brief: (§1)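 His-tagged Arabidopsis BIO3-BIO1 mutants, expressed in E. coli and purified by IMAC and SEC, were preincubated at 50 nM with herbicide for 10 min at 20 °C in EPPS pH 8.6 with pyridoxal phosphate. Reaction with 100 μM spermidine and 20 μM KAPA ran 75 min at 20 °C; DAPA was derivatised with o-phthalaldehyde and read at ex 410/em 470 nm. […].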

For experiment [3], the target named is T2, Arabidopsis thaliana BIO3-BIO1 (BioDA) mutants (Arabidopsis thaliana, UniProt B0F481, DEL508-508).
T2 construct: with the predicted N-terminal mitochondrial transit peptide removed; 6xHis-tag (N); thrombin cleavage site (N); made in house; host or cells: E. coli BL21 (DE3) bioA
T2 sequence (B0F481 other isoform, or with tags, fused parts or gaps DEL508-508): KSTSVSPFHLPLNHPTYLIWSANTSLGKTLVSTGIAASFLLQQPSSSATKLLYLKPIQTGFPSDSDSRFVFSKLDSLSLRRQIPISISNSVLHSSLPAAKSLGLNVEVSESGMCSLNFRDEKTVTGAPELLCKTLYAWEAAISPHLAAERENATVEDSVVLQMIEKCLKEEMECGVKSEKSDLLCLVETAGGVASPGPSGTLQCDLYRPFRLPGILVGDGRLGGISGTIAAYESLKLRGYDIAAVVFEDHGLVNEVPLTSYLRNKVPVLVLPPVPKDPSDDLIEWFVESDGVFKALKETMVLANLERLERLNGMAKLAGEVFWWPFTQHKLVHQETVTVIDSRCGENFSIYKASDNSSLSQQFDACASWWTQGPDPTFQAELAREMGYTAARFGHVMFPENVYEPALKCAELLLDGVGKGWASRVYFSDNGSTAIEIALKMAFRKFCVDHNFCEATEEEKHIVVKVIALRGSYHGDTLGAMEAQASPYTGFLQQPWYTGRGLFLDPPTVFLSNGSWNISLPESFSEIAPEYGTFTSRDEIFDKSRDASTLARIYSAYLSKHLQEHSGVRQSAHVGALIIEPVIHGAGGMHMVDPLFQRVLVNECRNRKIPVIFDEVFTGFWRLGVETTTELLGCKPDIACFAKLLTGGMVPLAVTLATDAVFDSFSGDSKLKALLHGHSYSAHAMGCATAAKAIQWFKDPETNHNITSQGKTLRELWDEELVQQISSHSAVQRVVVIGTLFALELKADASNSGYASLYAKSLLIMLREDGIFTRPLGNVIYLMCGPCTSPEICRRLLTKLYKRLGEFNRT
The description is as above. The settings on record: read-out: percentage inhibition. The procedure, abridged: as §1

The target in experiment [4] is T3, Arabidopsis thaliana BIO3-BIO1 (BioDA) mutants (Arabidopsis thaliana, UniProt B0F481, A507S).
T3 construct: with the predicted N-terminal mitochondrial transit peptide removed; 6xHis-tag (N); thrombin cleavage site (N); made in house; host or cells: E. coli BL21 (DE3) bioA
T3 sequence (B0F481 23-833 A507S): as the sequence (B0F481 23-833 Q506A) above, with A484Q, A485S counted along it
The experiment is described as above. The settings on record: read-out: percentage inhibition. The procedure, abridged:
as §1

Experiment [5] concerns the target T4, Arabidopsis thaliana BIO3-BIO1 (BioDA) mutants (Arabidopsis thaliana, UniProt B0F481, A507K).
T4 construct: with the predicted N-terminal mitochondrial transit peptide removed; 6xHis-tag (N); thrombin cleavage site (N); made in house; host or cells: E. coli BL21 (DE3) bioA
The experiment is described as above. The settings on record: read-out: percentage inhibition. The method in brief: as §1

T4 sequence (B0F481 23-833 A507K): as the sequence (B0F481 23-833 Q506A) above, with A484Q, A485K counted along it

Take `CCn1c(Cn2ccc(C(F)(F)F)n2)cc(=O)c(C(=O)O)c1-c1ccc(Cl)c(Cl)c1` [Compound L, 2-(3,4-dichlorophenyl)-1-ethyl-4-oxo-6-[[3-(trifluoromethyl)pyrazol-1-yl]methyl]pyridine-3-carboxylic acid]: the “% Inhibition relative to DMSO treatment” value in experiment [1] turned out to be 0%.
As to `CCOC(=O)c1nn(-c2ccc3c(c2)OC(F)(F)C(F)(F)O3)c2cccc(C(C)=O)c2c1=O` [Compound A, ethyl 5-acetyl-4-oxo-1-(2,2,3,3-tetrafluoro-1,4-benzodioxin-6-yl)cinnoline-3-carboxylate], the inhibition (as a rule, the share of the control response that was lost under treatment) at 1 µM was found to be 0% in experiment [2], 22% in experiment [3], 63% in experiment [4] and 81% in experiment [5].
